Assay: Solubility of peptide in the phosphate buffer solution used for immobilization
Format: physicochemical
Conditions: phosphate buffer solution (0.02 mol/liter) of pH 7.4
Protocol: • (a) In 50 ml of dioxane obtained by distillation in the presence of sodium metal, 10 g of cellulose particles (marketed by Seikagaku Kogyo Co., Ltd. under the tradename "CM-Cellulofine CH") were suspended. In the suspension, 0.5 g of N-hydroxysuccinimide and 1.0 g of dicyclohexylcarbodiimide added thereto were shaken overnight at room temperature. The resultant mixture was washed with a phosphate buffer solution (0.02 mol/liter) of pH 7.4 and suction filtered. The particles consequently obtained and 20 ml of a phosphate buffer solution (0.02 mol/liter) of pH 7.4 containing 20 mg of the peptide of Example 1 added thereto were stirred overnight at a temperature of 4°C. The mixture consequently obtained was suction filtered. […] Thus, about 10 g of cellulose particles (the adsorbent not heat treated) having immobilized thereon 20 mg of the peptide of Example 1 were obtained. • (b) In 5-ml aliquots of a phosphate buffer solution (0.02 mol/liter) of pH 7.4 containing sodium chloride in a concentration of 0.15 mol/liter, the peptide-immobilized cellulose particles obtained as described above were suspended in a unit amount of 1 g. […]

Which “solubility in the phosphate buffer solution” value does the source give for “H-Leu-Leu-Gly-Trp-Lys-His-Trp-Val-Tyr-Tyr-Thr- C y s - C^y s -Pro-Asp-Thr-Pro-Tyr-Leu-Asp-OH [Referential Example 2]” here?
The value was “low solubility”.

From patent EP0318240A2, “Peptide, adsorbent, method for production thereof, and method for use thereof” (AGENCY OF INDUSTRIAL SCIENCE & TECHNOLOGY MINISTRY OF …, priority 1987, dated 1989)
